Laboratory results from PubChem BioAssay AID256 (DTP/NCI, 2004).
Several values for one entry are separate records, joined by “and”; a condition that tells them apart may be missing. Identical values can stand only once. Inconclusive results and toxic doses are left out. Rule for the calls: active = survival T/C of 150% or more; inactive = T/C below 125% in these data.

Tested on: CD2F1 mice, L1210 leukemia ip, survival T/C
Assay: NCI In Vivo Anticancer Drug Screen. Data for tumor model L1210 Leukemia (intraperitoneal) in CD2F1 (CDF1) mice
Details: higher = longer survival
In short: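 Implant tumor; dose compound or vehicle; measure endpoint in both groups; report treated divided by control.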

[1] = endpoint: mean survival time, dose: 25.0 mg/kg/injection, schedule: Q01DX009 (ip), vehicle: saline with Tween-80
[2] = endpoint: mean survival time, dose: 50.0 mg/kg/injection, schedule: Q01DX009 (ip), vehicle: saline with Tween-80
[3] = endpoint: mean survival time, dose: 100.0 mg/kg/injection, schedule: Q01DX009 (ip), vehicle: saline with Tween-80
[4] = endpoint: mean survival time, dose: 100.0 mg/kg/injection, schedule: Q04DX003 (ip), vehicle: saline with Tween-80
[5] = endpoint: mean survival time, dose: 200.0 mg/kg/injection, schedule: Q01DX009 (ip), vehicle: saline with Tween-80
[6] = endpoint: mean survival time, dose: 200.0 mg/kg/injection, schedule: Q04DX003 (ip), vehicle: saline with Tween-80
[7] = endpoint: mean survival time, dose: 400.0 mg/kg/injection, schedule: Q04DX003 (ip), vehicle: saline with Tween-80
[8] = endpoint: mean survival time, dose: 12.5 mg/kg/injection, schedule: Q01DX005 (ip), vehicle: distilled water + Tween-80
[9] = endpoint: mean survival time, dose: 25.0 mg/kg/injection, schedule: Q01DX005 (ip), vehicle: distilled water + Tween-80
[10] = endpoint: mean survival time, dose: 50.0 mg/kg/injection, schedule: Q01DX005 (ip), vehicle: distilled water + Tween-80
[11] = endpoint: mean survival time, dose: 200.0 mg/kg/injection, schedule: Q01DX005 (ip), vehicle: distilled water + Tween-80
[12] = endpoint: mean survival time, dose: 400.0 mg/kg/injection, schedule: Q01DX009 (ip), vehicle: saline with Tween-80
[13] = endpoint: mean survival time, dose: 100.0 mg/kg/injection, schedule: Q01DX001 (ip), vehicle: saline
[14] = endpoint: mean survival time, dose: 200.0 mg/kg/injection, schedule: Q01DX001 (ip), vehicle: saline
[15] = endpoint: mean survival time, dose: 400.0 mg/kg/injection, schedule: Q01DX001 (ip), vehicle: saline
[16] = endpoint: mean survival time, dose: 100.0 mg/kg/injection, schedule: Q01DX001 (ip), vehicle: saline with Tween-80

Measured: T/C

COc1cccc2c1C(=O)c1c(O)c3c(c(O)c1C2=O)C[C@@](O)(C(=O)CO)C[C@@H]3OC1CC(NC=O)C(O)C(C)O1 (stereo partly drawn)
inactive: endpoint: mean survival time, dose: 6.25 mg/kg/injection, schedule: Q04DX003 (ip), vehicle: water 93 % of control | endpoint: mean survival time, dose: 12.5 mg/kg/injection, schedule: Q04DX003 (ip), vehicle: water 93 % of control | endpoint: mean survival time, dose: 25.0 mg/kg/injection, schedule: Q04DX003 (ip), vehicle: water 102 % of control | endpoint: mean survival time, dose: 50.0 mg/kg/injection, schedule: Q04DX003 (ip), vehicle: water 112 % of control | endpoint: mean survival time, dose: 100.0 mg/kg/injection, schedule: Q04DX003 (ip), vehicle: water 114 % of control

Nc1cc2n[nH]nc2c(=O)[nH]1
inactive: endpoint: median survival time, dose: 50.0 mg/kg/injection, schedule: Q01DX005 (ip), vehicle: saline with Tween-80 107 % of control | endpoint: median survival time, dose: 100.0 mg/kg/injection, schedule: Q01DX005 (ip), vehicle: saline with Tween-80 101 % of control | endpoint: median survival time, dose: 200.0 mg/kg/injection, schedule: Q01DX005 (ip), vehicle: saline with Tween-80 100 % of control

CCc1ccc(O)cc1O
inactive: endpoint: mean survival time, dose: 25.0 mg/kg/injection, schedule: Q04DX003 (ip), vehicle: saline 97 % of control | endpoint: mean survival time, dose: 50.0 mg/kg/injection, schedule: Q04DX003 (ip), vehicle: saline 102 % of control | endpoint: mean survival time, dose: 100.0 mg/kg/injection, schedule: Q04DX003 (ip), vehicle: saline 94 % of control and 96 % of control

O=C(OCCC[P+](c1ccccc1)(c1ccccc1)c1ccccc1)c1ccccc1
inactive: endpoint: mean survival time, dose: 6.25 mg/kg/injection, schedule: Q01DX001 (ip), vehicle: saline with Tween-80 109 % of control | endpoint: mean survival time, dose: 6.25 mg/kg/injection, schedule: Q01DX009 (ip), vehicle: saline with Tween-80 110 % of control | endpoint: mean survival time, dose: 12.5 mg/kg/injection, schedule: Q01DX001 (ip), vehicle: saline with Tween-80 114 % of control | endpoint: mean survival time, dose: 12.5 mg/kg/injection, schedule: Q01DX009 (ip), vehicle: saline with Tween-80 114 % of control | endpoint: mean survival time, dose: 25.0 mg/kg/injection, schedule: Q01DX001 (ip), vehicle: saline with Tween-80 115 % of control | [1] 112 % of control

CCOC(=O)CCC(C)(C#N)c1ccccc1 (stereo not drawn)
inactive: [1] 96 % of control | [2] 93 % of control | [3] 98 % of control

C=CCSc1cccc2ccccc12
inactive: [3] 90 % of control | [4] 104 % of control | [5] 96 % of control | [6] 104 % of control | [7] 106 % of control

CC(Cc1ccccc1)NC(C)Cc1ccccc1 (stereo not drawn)
inactive: [4] 98 % of control | [6] 102 % of control

O=C1C(c2ccccc2)=C2C(=C1c1ccccc1)c1cccc3cccc2c13
inactive: [4] 92 % of control | [6] 90 % of control | [7] 92 % of control

CC(=O)OC1COC(n2c(=S)n(-c3ccccc3)c(=N)c3ccccc32)C(OC(C)=O)C1OC(C)=O (stereo not drawn)
inactive: [8] 90 % of control | [9] 87 % of control | [10] 93 % of control | [11] 92 % of control

CC(C)C(C(=O)c1ccccc1)C(c1ccccc1)c1ccccc1 (stereo not drawn)
inactive: endpoint: mean survival time, dose: 100.0 mg/kg/injection, schedule: Q04DX003 (ip), vehicle: other 106 % of control | endpoint: mean survival time, dose: 200.0 mg/kg/injection, schedule: Q04DX003 (ip), vehicle: other 97 % of control | endpoint: mean survival time, dose: 400.0 mg/kg/injection, schedule: Q04DX003 (ip), vehicle: other 100 % of control

COc1ccc(COC(=O)Oc2ccc(C)cc2)cc1OC
inactive: [3] 100 % of control | [5] 102 % of control | [12] 98 % of control

CCCCCCCCC(Sc1nn(C2OC(COC(=O)c3ccccc3)C(OC(=O)c3ccccc3)C2OC(=O)c2ccccc2)c(=O)[nH]c1=O)C(=O)OCC (stereo not drawn)
inactive: [8] 101 % of control | [9] 100 % of control | [10] 100 % of control | endpoint: mean survival time, dose: 100.0 mg/kg/injection, schedule: Q01DX005 (ip), vehicle: distilled water + Tween-80 97 % of control | [11] 97 % of control

c1ccc(-n2c3ccccc3c3ccccc32)cc1
inactive: [3] 98 % of control | [5] 98 % of control | [12] 95 % of control

Cc1ccc(S(=O)(=O)SCC(=O)c2ccc([N+](=O)[O-])cc2)cc1
inactive: [13] 94 % of control | endpoint: mean survival time, dose: 100.0 mg/kg/injection, schedule: Q01DX009 (ip), vehicle: saline sonified 96 % of control | [14] 92 % of control | endpoint: mean survival time, dose: 200.0 mg/kg/injection, schedule: Q01DX009 (ip), vehicle: saline sonified 97 % of control | [15] 92 % of control

C=CCOc1ccc(OC)cc1
inactive: [4] 97 % of control | [6] 97 % of control | [7] 92 % of control

CCC(C)(CC(=O)OC)C(=O)OC (stereo not drawn)
inactive: [13] 108 % of control | [14] 104 % of control | [15] 108 % of control

Oc1ccccc1/C=N/c1nc(-c2ccccc2)cs1.Oc1ccccc1/C=N/c1nc(-c2ccccc2)cs1.[Zn]
inactive: endpoint: mean survival time, dose: 25.0 mg/kg/injection, schedule: Q01DX001 (ip), vehicle: saline 103 % of control | endpoint: mean survival time, dose: 50.0 mg/kg/injection, schedule: Q01DX001 (ip), vehicle: saline 100 % of control | [16] 104 % of control | [13] 91 % of control

C[n+]1ccc2ccccc2c1SC1CCC2CC3CC2C1C3 (stereo not drawn)
inactive: endpoint: mean survival time, dose: 10.0 mg/kg/injection, schedule: Q01DX009 (iv), vehicle: methylcellulose (MC) 97 % of control | endpoint: mean survival time, dose: 20.0 mg/kg/injection, schedule: Q01DX009 (iv), vehicle: methylcellulose (MC) 97 % of control

CCCCC(C#N)(CCCC)C(=O)OCC
inactive: [2] 101 % of control | [3] 91 % of control | [5] 97 % of control

COC(=O)C(N)CSCc1ccccc1 (stereo not drawn)
inactive: [13] 100 % of control | endpoint: mean survival time, dose: 100.0 mg/kg/injection, schedule: Q01DX009 (ip), vehicle: saline 102 % of control | endpoint: mean survival time, dose: 200.0 mg/kg/injection, schedule: Q01DX009 (ip), vehicle: saline 97 % of control | [15] 100 % of control | endpoint: mean survival time, dose: 400.0 mg/kg/injection, schedule: Q01DX009 (ip), vehicle: saline 98 % of control

CCCCOCN(COCCCC)c1ccccc1
inactive: [16] 109 % of control | endpoint: mean survival time, dose: 200.0 mg/kg/injection, schedule: Q01DX001 (ip), vehicle: saline with Tween-80 103 % of control | endpoint: mean survival time, dose: 400.0 mg/kg/injection, schedule: Q01DX001 (ip), vehicle: saline with Tween-80 97 % of control

Cn1c(=O)[nH]c2nncnc2c1=O
inactive: endpoint: mean survival time, dose: 2.0 mg/kg/injection, schedule: Q01DX009 (ip), vehicle: water 103 % of control | endpoint: mean survival time, dose: 4.0 mg/kg/injection, schedule: Q01DX009 (ip), vehicle: water 97 % of control | endpoint: mean survival time, dose: 8.0 mg/kg/injection, schedule: Q01DX009 (ip), vehicle: water 97 % of control | endpoint: mean survival time, dose: 16.0 mg/kg/injection, schedule: Q01DX009 (ip), vehicle: water 98 % of control | endpoint: mean survival time, dose: 32.0 mg/kg/injection, schedule: Q01DX009 (ip), vehicle: water 101 % of control | endpoint: mean survival time, dose: 375.0 micrograms/kg/injection, schedule: Q01DX009 (ip), vehicle: saline 100 % of control | endpoint: mean survival time, dose: 750.0 micrograms/kg/injection, schedule: Q01DX009 (ip), vehicle: saline 104 % of control | endpoint: mean survival time, dose: 1500.0 micrograms/kg/injection, schedule: Q01DX009 (ip), vehicle: saline 100 % of control | endpoint: mean survival time, dose: 3000.0 micrograms/kg/injection, schedule: Q01DX009 (ip), vehicle: saline 100 % of control

C=CCN1CCCC1=O
inactive: [3] 100 % of control | [5] 102 % of control | [12] 102 % of control
